Source: ChEMBL document CHEMBL4043212, “Design, synthesis and biological evaluation of 1,3-diphenylbenzo[f][1,7]naphthyrdines” (2017)

What was measured:
NCI-H23 = test: Cytotoxicity against human NCI-H23 cells assessed as inhibition of cell growth incubated for 72 hrs by SRB assay; type: functional
HCT-15 = test: Cytotoxicity against human HCT15 cells assessed as inhibition of cell growth incubated for 72 hrs by SRB assay; type: functional
NUGC-3 = test: Cytotoxicity against human NUGC3 cells assessed as inhibition of cell growth incubated for 72 hrs by SRB assay; type: functional
ACHN = test: Cytotoxicity against human ACHN cells assessed as inhibition of cell growth incubated for 72 hrs by SRB assay; type: functional
PC-3 = test: Cytotoxicity against human PC3 cells assessed as inhibition of cell growth incubated for 72 hrs by SRB assay; type: functional
MDA-MB-231 = test: Cytotoxicity against human MDA-MB-231 cells assessed as inhibition of cell growth incubated for 72 hrs by SRB assay; type: functional
[1] = target: DNA topoisomerase 2-alpha (Homo sapiens) (UniProt P11388); test: Inhibition of human topoisomerase-2 alpha assessed as reduction in conversion of super coiled plasmid DNA to relaxed DNA at 100 uM using supercoiled pBR322 DNA as substrate after 30 mins by ethidium bromide staining based agarose gel electrophoresis method relative to control
[2] = target: DNA topoisomerase 2-alpha (Homo sapiens) (UniProt P11388); test: Inhibition of human topoisomerase-2 alpha assessed as reduction in conversion of super coiled plasmid DNA to relaxed DNA at 20 uM using supercoiled pBR322 DNA as substrate after 30 mins by ethidium bromide staining based agarose gel electrophoresis method relative to control
[3] = target: DNA topoisomerase 2-alpha (Homo sapiens) (UniProt P11388); test: Potency index, ratio of inhibitory activity of etoposide to test compound for inhibition of human topoisomerase-2 alpha at 100 uM using supercoiled pBR322 DNA as substrate after 30 mins by ethidium bromide staining based agarose gel electrophoresis method relative to control
[4] = target: DNA topoisomerase 2-alpha (Homo sapiens) (UniProt P11388); test: Potency index, ratio of inhibitory activity of etoposide to test compound for inhibition of human topoisomerase-2 alpha at 20 uM using supercoiled pBR322 DNA as substrate after 30 mins by ethidium bromide staining based agarose gel electrophoresis method relative to control

Chain of DNA topoisomerase 2-alpha (Homo sapiens) (P11388 whole entry): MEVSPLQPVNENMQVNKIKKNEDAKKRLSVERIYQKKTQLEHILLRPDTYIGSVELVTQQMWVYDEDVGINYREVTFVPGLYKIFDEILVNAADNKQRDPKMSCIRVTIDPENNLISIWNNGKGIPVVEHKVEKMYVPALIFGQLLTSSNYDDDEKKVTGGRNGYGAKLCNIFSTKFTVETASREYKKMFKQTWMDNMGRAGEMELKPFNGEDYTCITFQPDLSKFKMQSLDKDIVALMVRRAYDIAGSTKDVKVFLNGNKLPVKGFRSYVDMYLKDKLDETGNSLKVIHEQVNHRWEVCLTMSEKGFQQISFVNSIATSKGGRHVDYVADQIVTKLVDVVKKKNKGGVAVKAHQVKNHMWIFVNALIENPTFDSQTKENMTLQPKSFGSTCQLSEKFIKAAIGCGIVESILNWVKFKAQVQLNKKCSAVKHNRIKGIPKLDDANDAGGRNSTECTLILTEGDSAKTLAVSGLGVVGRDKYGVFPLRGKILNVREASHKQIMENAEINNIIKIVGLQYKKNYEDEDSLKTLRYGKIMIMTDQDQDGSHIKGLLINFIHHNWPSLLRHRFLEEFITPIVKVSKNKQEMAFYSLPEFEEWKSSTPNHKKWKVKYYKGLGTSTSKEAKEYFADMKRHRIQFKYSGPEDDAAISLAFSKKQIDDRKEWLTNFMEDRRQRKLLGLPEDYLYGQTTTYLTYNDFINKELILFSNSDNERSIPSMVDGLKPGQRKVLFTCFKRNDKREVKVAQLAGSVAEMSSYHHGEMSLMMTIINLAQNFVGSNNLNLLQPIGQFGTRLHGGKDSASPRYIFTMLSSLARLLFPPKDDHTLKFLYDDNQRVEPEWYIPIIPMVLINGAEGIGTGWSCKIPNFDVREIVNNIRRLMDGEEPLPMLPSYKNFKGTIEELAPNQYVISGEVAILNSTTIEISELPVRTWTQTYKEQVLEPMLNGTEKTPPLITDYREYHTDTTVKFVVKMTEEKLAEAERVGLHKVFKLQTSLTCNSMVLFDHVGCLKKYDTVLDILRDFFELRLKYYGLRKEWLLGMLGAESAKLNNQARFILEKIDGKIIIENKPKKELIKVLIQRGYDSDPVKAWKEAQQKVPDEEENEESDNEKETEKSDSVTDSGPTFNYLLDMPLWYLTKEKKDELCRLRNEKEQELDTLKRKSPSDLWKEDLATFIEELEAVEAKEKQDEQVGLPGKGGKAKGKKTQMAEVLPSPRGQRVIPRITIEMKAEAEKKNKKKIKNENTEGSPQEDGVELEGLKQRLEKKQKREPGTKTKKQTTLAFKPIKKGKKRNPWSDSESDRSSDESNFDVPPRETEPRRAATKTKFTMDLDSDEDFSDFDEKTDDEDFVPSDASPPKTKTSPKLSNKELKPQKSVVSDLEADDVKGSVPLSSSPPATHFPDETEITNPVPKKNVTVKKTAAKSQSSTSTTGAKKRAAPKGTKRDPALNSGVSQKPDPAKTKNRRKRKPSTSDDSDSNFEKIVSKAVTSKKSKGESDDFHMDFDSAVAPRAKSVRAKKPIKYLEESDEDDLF

Compound | GI50 (NCI-H23; Homo sapiens, NCI-H23, 72 h) [nM] | GI50 (HCT-15; Homo sapiens, HCT-15, 72 h) [µM] | GI50 (NUGC-3; Homo sapiens, NUGC-3, 72 h) [nM] | GI50 (ACHN) [µM] | GI50 (PC-3) [µM] | GI50 (MDA-MB-231; Homo sapiens, MDA-MB-231, 72 h) [µM] | GI50 (ACHN; Homo sapiens, ACHN, 72 h) [µM] | GI50 (PC-3; Homo sapiens, PC-3, 72 h) [µM] | GI50 (NCI-H23) [nM] | GI50 (HCT-15) [µM] | GI50 (NUGC-3) [nM] | GI50 (MDA-MB-231) [µM] | inhibition [1] [%] | inhibition [2] [%] | Ratio [3] | Ratio [4]
COc1ccc(-c2cc(-c3cccc4ccccc34)nc3cnc4ccccc4c23)cc1 [listing 1 of 2 here] | 1650 | 2.72 | 2160 | 5.36 | 3.38 | 2.81 |  |  |  |  |  |  |  |  |  | 
COc1ccc(-c2cc(-c3ccccc3)nc3cnc4ccccc4c23)cc1 | 4020 | 4.38 | 5830 |  |  | 7.28 | 2.13 | 3.07 |  |  |  |  |  |  |  | 
COc1ccc(-c2c(C)c(-c3ccccc3Br)nc3cnc4ccccc4c23)cc1 | > 10000 | > 10 | > 10000 |  |  | > 10 | > 10 | > 10 |  |  |  |  |  |  |  | 
COc1ccc(-c2cc(-c3cccs3)nc3cnc4ccccc4c23)cc1 | 3300 | 7.06 | 2000 |  |  | 7.69 | 5.65 | 6.88 |  |  |  |  |  |  |  | 
COc1ccc(-c2cc(-c3ccc([N+](=O)[O-])cc3)nc3cnc4ccccc4c23)cc1 [listing 1 of 2 here] |  |  |  | > 10 | > 10 |  |  |  | > 10000 | > 10 | > 10000 | > 10 |  |  |  | 
CCn1cc(-c2cc(-c3ccc(OC)cc3)c3c(cnc4ccccc43)n2)c2ccccc21 | 2070 | 4.88 | 3030 |  |  | 3.04 | 5.61 | 6.15 |  |  |  |  |  |  |  | 
COc1ccc(-c2cc(-c3ccccc3Cl)nc3cnc4ccccc4c23)cc1 | 2550 | 2.15 | 3000 |  |  | 3.32 | 3.27 | 4.46 |  |  |  |  |  |  |  | 
COc1ccc(-c2cc(-c3ccc(Cl)cc3)nc3cnc4ccccc4c23)cc1 | 1700 | 4.82 | 2170 |  |  | 2.94 | 1.69 | 1.53 |  |  |  |  | 3 |  |  | 
COc1ccc(-c2cc(-c3ccc(Br)cc3)nc3cnc4ccccc4c23)cc1 | 1620 | 1.97 | 1850 |  |  | 2.58 | 4.95 | 6.75 |  |  |  |  |  |  |  | 
COc1ccc(-c2cc(-c3ccc([N+](=O)[O-])cc3)nc3cnc4ccccc4c23)cc1 [listing 2 of 2 here] |  |  |  | 3.92 | 3.59 |  |  |  | 2420 | 4.37 | 2870 | 3.49 |  |  |  | 
CCCCCCn1cc(-c2cc(-c3ccc(OC)cc3)c3c(cnc4ccccc43)n2)c2ccccc21 | > 10000 | > 10 | > 10000 |  |  | > 10 | > 10 | > 10 |  |  |  |  |  |  |  | 
COc1cccc2c1C(=O)c1c(O)c3c(c(O)c1C2=O)C[C@@](O)(C(=O)CO)C[C@@H]3O[C@H]1C[C@H](N)[C@H](O)[C@H](C)O1 [DOXORUBICIN] | 90 | 0.077 | 86 |  |  | 0.068 | 0.08 | 0.076 |  |  |  |  |  |  |  | 
COc1ccc(-c2cc(-c3cccc(C#N)c3)nc3cnc4ccccc4c23)cc1 | 1890 | 1.79 | 2030 |  |  | 1.79 | 3.86 | 3.15 |  |  |  |  | 0.2 |  |  | 
COc1ccc(-c2cc(-c3ccc4ccccc4c3)nc3cnc4ccccc4c23)cc1 | > 10000 | > 10 | > 10000 |  |  | > 10 | > 10 | > 10 |  |  |  |  |  |  |  | 
COc1ccc(-c2cc(-c3ccccc3Br)nc3cnc4ccccc4c23)cc1 | > 10000 | > 10 | > 10000 |  |  | > 10 | > 10 | > 10 |  |  |  |  |  |  |  | 
COc1ccc(-c2cc(-c3ccc(OC)c4ccccc34)nc3cnc4ccccc4c23)cc1 | > 10000 | > 10 | > 10000 |  |  | > 10 | > 10 | > 10 |  |  |  |  |  |  |  | 
COc1ccc(-c2cc(-c3ccc(OC)cc3)c3c(cnc4ccccc43)n2)cc1 | > 10000 | > 10 | > 10000 |  |  | > 10 | > 10 | > 10 |  |  |  |  |  |  |  | 
COc1ccc(-c2cc(-c3ccccc3[N+](=O)[O-])nc3cnc4ccccc4c23)cc1 | > 10000 | > 10 | > 10000 |  |  | > 10 | > 10 | > 10 |  |  |  |  |  |  |  | 
COc1ccc(-c2cc(-c3ccc(C(F)(F)F)cc3C(F)(F)F)nc3cnc4ccccc4c23)cc1 | > 10000 | > 10 | > 10000 |  |  | > 10 | > 10 | > 10 |  |  |  |  |  |  |  | 
COc1ccc(-c2cc(-c3ccc(C(F)(F)F)cc3)nc3cnc4ccccc4c23)cc1 | > 10000 | > 10 | > 10000 |  |  | > 10 | > 10 | > 10 |  |  |  |  |  |  |  | 
COc1ccc(-c2cc(-c3ccc(N(C)C)cc3)nc3cnc4ccccc4c23)cc1 | 1720 | 1.86 | 1950 |  |  | 2.3 | 1.98 | 2.98 |  |  |  |  | 91.3 | 42.4 | 1.3 | 1.2
COc1ccc(-c2cc(-c3cccc4ccccc34)nc3cnc4ccccc4c23)cc1 [listing 2 of 2 here] |  |  |  | 2.25 | 1.57 |  |  |  | 1810 | 1.98 | 1680 | 1.51 |  |  |  | 
